Experimental data from patent US12377069B2, “Compounds, compositions, methods of using, and methods for preparing compounds” (UNIVERSITY OF LOUISVILLE RESEARCH FOUNDATION, INC., priority 2018, dated 2025).

How the values were obtained:
Nrf2 = Nrf2 expression, nuclear translocation and target genes; assay type: cell-based, human; settings: for NQO1 expression in HT29 cells: 50 μM; for Nrf2 mRNA and protein levels / Nrf2 nuclear translocation: HT29, 50 μM; for Nrf2 nuclear translocation: 6 h
Experimental: Real time PCR: Total RNA was isolated from cells/tissue using Maxwell® 16 LEV simplyRNA tissue kit (Promega) and reverse transcribed with TaqManC Reverse transcription Kit (Applied Biosystems, CA, USA). The transcribed cDNA (after dilution) was mixed with 100 nM gene specific primers (Real time primers LLC) and 1×SYBR green reaction mix (Power SYBR® Green PCR Master Mix; Applied Biosystems, CA, USA). Changes in gene expression was analyzed using CFX96™ Real-Time System (Bio Rad) and fold change in expression was calculated using 2^ΔΔCT method using GAPDH/0-actin as house keeping gene and normalized with untreated control.
Immunoblots (Western blots): The total protein lysates were collected either from colon tissue/cells using radioimmunoprecipitation assay (RIPA) buffer (Sigma-Aldrich, USA) and quantified using BCA protein quantification kit (Thermo Scientific) as per instructional manual. Total protein (20-50 μg) of was resolved on NuPAGE™ 4-12% Bis-Tris gel (Novex Life technologies) and transferred to polyvinylidene difluoride membrane (0.22 μm pore; Millipore, USA). After blocking with 5% (w/v) skim milk powder (containing 1×TBS) for 1 h, the membrane was then incubated with respective antibodies at 4° C. overnight (dilutions of respective antibodies is given in Table A1). Next day, respective secondary antibody conjugated with Horseradish peroxidase were probed and the chemiluminescent substrate was used to detect the protein bands (ImageQuant LAS 4000). Densitometry analysis of bands were done using ImageJ software. Antibodies for Cldn4, Ocln, Cldn1, Cyp1A1, AhR, HO1, NQO1, Keap1, β-actin and Lamin B were purchased from Santa Cruz Biotechnologies (USA) and Nrf2 from Novus Biologicals (USA).
Confocal Imaging: HT29 or CaCo2 or BMDM cells (50,000 cells/well) were plated on to 8-well chambered slides (154534PK; ThermoFisher Scientific) allowed them to grow overnight. The cells were induced with vehicle (0.01% DMSO) or UroA (50 μM) or UAS03 (50 μM) for desired time points and fixed with cold methonol. The AhR or Nrf2 or Cldn4 stained with respective antibodies (1:200 dilution) followed by fluorecently labelled (Alexa flour 594 for AhR and Alexa flour 488 for Nrf2 and Cldn4) secondary ab (1:500 dilution; ThermoFisher Scientific). The nucleus was stained with DAPI (Sigma Aldrich). The confocal images were captured using Nikon AIR confocal microscope using 60× magnification lense with appropriate laser channels.

BMDM = test: Nrf2-dependent pathways in macrophages; assay type: cell-based, mouse; settings: 50 μM
Experimental: The data is separately presented for each time point (No TNBS− Solid black line; Veh+TNBS− Solid red line; UroA+TNBS− Solid blue line; UAS03+TNBS− Solid purple line). The data is separately presented for each time point. (No TNBS− Solid black line; Veh+TNBS− Solid red line; UroA+TNBS− Solid blue line; UAS03+TNBS− Solid purple line). (C-G) UroA/UAS03 activate Nrf2-dependent pathways in BMDM. (C) Wild type BMDM were isolated and cultured for 7 days. BMDM were treated with Veh (0.01% DMSO) or UroA or UAS03 (50 μM) for 6 h and total RNA was isolated. Nrf2 levels were measured using SyBR green Real Time PCR method. (D) Veh or UroA or UAS03 treated BMDM cell lysates were immunoblotted for Nrf2. (E) The nuclear and cytosolic fractions of BMDMs were immnunobloted for Nr2. Lamin B and β-actin were used as normalizing proteins. […] The expression of Nrf2 was determined by immunofluorescence staining using anti-Nrf2 followed by secondary antibody tagged with Alexa-488 dye and DAPI was used to stain nucleus. The fluorescence images were captured using Nikon A1R confocal microscope at 60× magnification and green fluorescence (n=>15 cells) was measured using Nikon elements software. […] NF-κB activation was evaluated by EMSA assays. […] The fold change over basal was calculated using its own control. […]

Caco2 cells = test: LPS depletion of Ocln in colon epithelial cells; assay type: cell-based, human; settings: 10, 25, 50 μM, 24 h
Experimental: FIG. 12: UroA/UAS03 protect from LPS or alcohol induced depletion of Ocln and protected permeability. (A) Caco 2 cells were treated with LPS for 24 h at indicated doses and Western blots performed to determine expression of Ocln. (B) Caco2 cells were treated with LPS in combination with UroA or UAS03 (10, 25, 50 μM) for 24 h and determined Ocln expression.
UroA/UAS03 upregulate TJ proteins and protect against LPS induced damage: TJ proteins such as Cldn4, ZO-1, Ocln play a role in maintaining the gut epithelial integrity and protect the gut from external insults such as LPS. We investigated UroA/UAS03 effects on TJ protein regulation in colon epithelial cells, HT-29 and Caco2 cells. […] ALD is associated with disrupted TJs, increased permeability, inflammation and endotoxemia. Ocln is a tight junction protein expressed in intestinal epithelium and plays a role in maintenance of gut barrier function. We examined whether UroA/UAS03 can protect LPS (endotoxin) depletion of Ocln in colon epithelial cells. […] For this purpose, we have utilized Caco-2 monolayer cells on transwell membranes and performed transepithelial electrical resistance (TEER) and FITC-dextran permeability assays.

Row | SMILES | NQO1 expression in HT29 cells (Nrf2) | Nrf2 mRNA and protein levels (Nrf2) | Nrf2 nuclear translocation (Nrf2) | Nrf2 expression, nuclear translocation and HO1 in macrophages (BMDM) | LPS depletion of Ocln (Caco2 cells)
1 | Oc1ccc2c(c1)COc1cc(O)ccc1-2 [UAS03, 6H-benzo[c]chromene-3,8-diol] | induced NQO1 expression | upregulated Nrf2 | induced its nuclear translocation | upregulated Nrf2 expression and induced its nuclear translocation | protected from depletion of Ocln
2 | O=c1oc2cc(O)ccc2c2ccc(O)cc12 [UroA, 3,8-dihydroxy-6H-dibenzo[b,d]pyran-6-one] | induced NQO1 expression | upregulated Nrf2 | induced its nuclear translocation | upregulated Nrf2 expression and induced its nuclear translocation | protected from depletion of Ocln
